Where two headings read alike, the source gives them in different places.
What was measured:
Assay type in all cases: cell-based, human
MV4;11 cells = assay: Cell proliferation experiment (Alamar blue, 72 h), MV4;11; details: read-out: Inhibitory activity IC50 on MV4;11
Summary of the method: (§1)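 IC50 values derive from a four-parameter logistic fit of Alamar blue fluorescence. Cells in logarithmic growth, plated in 96-well format, are treated for 72 h with compound diluted 5-fold serially, two wells per concentration.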

MDA-MB-231 cells = assay: Cell proliferation experiment, MDA-MB-231; details: read-out: Inhibitory activity IC50 on MDA-MB-231
Experimental: (§2) Reagents: RPMI-1640 medium, McCoy's 5A medium, IMDM medium, MEM medium, L-15 medium, fetal bovine serum. Penicillin-Streptomycin double antibody, trypsin, etc., 2-mercaptoethanol, NEAA, pyruvate, etc.
(§3) The cells were cultured in conventional ways, and the cells should be passed at least 2 generations before plating. Cells at the logarithmic growth phase were collected, prepared into single cell suspensions and counted. The concentration of cells was adjusted to the desired concentration, and cells were inoculated into a 96-well cell culture plate at 100 μl per well. 100 μL of complete medium of the test compound were added to each well, set up 2 duplicate wells for each concentration, and diluted with a 5-fold gradient, and continued to culture for 72 h. All cells were subjected to IC50 test for corresponding samples. The experimental results are shown in Test Example 4.
(§4) The fluorescence intensity of each well was detected using the Alarm blue method, and IC50 was calculated.
(§5) IC50 was calculated according to the following formula:
(§6) Y=Max+(Min−Max)/[1+(X/IC50)×Slope]
(§7) wherein Min, Max and Slope represent the minimum, maximum and slope respectively.

NCIH82 cells = assay: Cell proliferation experiment, NCI-H82; details: read-out: Inhibitory activity IC50 on NCI-H82
Summary of the method: as §1

PC-3 = assay: Cell proliferation experiment, PC-3; details: read-out: Inhibitory activity IC50 on PC-3
Experimental: as §2, §3, §4, §5, §6, §7

[1] = Homo sapiens, MV4-11, MV4;11 cells
[2] = Homo sapiens, MDA-MB-231, MDA-MB-231 cells
[3] = Homo sapiens, NCI-H82, NCI-H82 cells

SMILES	IC50 (MV4;11 cells; [1])	IC50 (MDA-MB-231 cells; [2])	IC50 (NCIH82 cells; [3])	IC50 (PC-3; Homo sapiens, PC-3, PC-3 cells)	IC50 (MV4;11 cells; MV4;11 cells)	IC50 (MDA-MB-231 cells; MDA-MB-231 cells)	IC50 (NCIH82 cells; NCI-H82 cells)	IC50 (PC-3; PC-3 cells)
O=C1CCC(N2Cc3cc(NC(=O)CCNCCOCCOCCNC(=O)[C@]4(Cc5cccc(Nc6nccs6)n5)CC[C@@H](Oc5cccc(Cl)c5F)CC4)ccc3C2=O)C(=O)N1 (some centres unmarked) [UB-181031]	> 1000 nM	> 1000 nM	> 1000 nM	> 1000 nM	–	–	–	–
O=C1CCC(N2Cc3cc(NC(=O)CNCCCOCCOCCNC(=O)[C@]4(Cc5cccc(Nc6nccs6)n5)CC[C@@H](Oc5cccc(Cl)c5F)CC4)ccc3C2=O)C(=O)N1 (some centres unmarked) [UB-181032]	100 to 1000 nM	> 1000 nM	> 1000 nM	> 1000 nM	–	–	–	–
O=C1CCC(N2Cc3cc(NC(=O)CCNCCCOCCCCNC(=O)c4ccc(Nc5ncc6c(n5)-c5ccc(Cl)cc5C(c5c(F)cccc5F)=NC6)cc4)ccc3C2=O)C(=O)N1 (centres unmarked) [UB-181033]	100 to 1000 nM	> 1000 nM	> 1000 nM	> 1000 nM	–	–	–	–
O=C1CCC(N2Cc3cc(NC(=O)CCNCCCOCCCCNC(=O)[C@]4(Cc5cccc(Nc6nccs6)n5)CC[C@@H](Oc5cccc(Cl)c5F)CC4)ccc3C2=O)C(=O)N1 (some centres unmarked) [UB-181034]	100 to 1000 nM	> 1000 nM	> 1000 nM	> 1000 nM	–	–	–	–
O=C1CCC(N2Cc3c(NC(=O)CNCCCOCCOCCNC(=O)[C@]4(Cc5cccc(Nc6nccs6)n5)CC[C@@H](Oc5cccc(Cl)c5F)CC4)cccc3C2=O)C(=O)N1 (some centres unmarked) [UB-181035]	100 to 1000 nM	> 1000 nM	> 1000 nM	> 1000 nM	–	–	–	–
O=C1CCC(N2Cc3c(NC(=O)CCNCCOCCOCCNC(=O)[C@]4(Cc5cccc(Nc6nccs6)n5)CC[C@@H](Oc5cccc(Cl)c5F)CC4)cccc3C2=O)C(=O)N1 (some centres unmarked) [UB-181036]	> 1000 nM	> 1000 nM	> 1000 nM	> 1000 nM	–	–	–	–
CNC(=O)c1ccccc1Nc1nc(Nc2ccc(N3CCN(C(=O)NCCOCCOCCNCCC(=O)Nc4ccc5c(c4)CN(C4CCC(=O)NC4=O)C5=O)CC3)cc2)ncc1Cl (centres unmarked) [UB-181039]	10 to 100 nM	> 1000 nM	100 to 1000 nM	> 1000 nM	–	–	–	–
CNC(=O)c1ccccc1Nc1nc(Nc2ccc(N3CCN(C(=O)NCCOCCOCCCNCC(=O)Nc4cccc5c4CN(C4CCC(=O)NC4=O)C5=O)CC3)cc2)ncc1Cl (centres unmarked) [UB-181040]	10 to 100 nM	> 1000 nM	> 1000 nM	> 1000 nM	–	–	–	–
O=C1CCC(N2Cc3cc(NC(=O)CCOCCNCCOCCn4cc(-c5ccc(Nc6ncc7c(n6)-c6ccc(Cl)cc6C(c6c(F)cccc6F)=NC7)cc5)nn4)ccc3C2=O)C(=O)N1 (centres unmarked) [UB-181041]	> 1000 nM	> 1000 nM	> 1000 nM	> 1000 nM	–	–	–	–
CNC(=O)c1ccccc1Nc1nc(Nc2ccc(N3CCN(C(=O)NCCCCOCCCNCCC(=O)Nc4ccc5c(c4)CN(C4CCC(=O)NC4=O)C5=O)CC3)cc2)ncc1Cl (centres unmarked) [UB-181042]	10 to 100 nM	> 1000 nM	100 to 1000 nM	> 1000 nM	–	–	–	–
CNC(=O)c1ccccc1Nc1nc(Nc2ccc(N3CCN(C(=O)NCCOCCOCCNCCC(=O)Nc4cccc5c4CN(C4CCC(=O)NC4=O)C5=O)CC3)cc2)ncc1Cl (centres unmarked) [UB-181043]	< 10 nM	> 1000 nM	100 to 1000 nM	> 1000 nM	–	–	–	–
CNC(=O)c1ccccc1Nc1nc(Nc2ccc(N3CCN(C(=O)NCCNCCOCCOCCC(=O)Nc4ccc5c(c4)CN(C4CCC(=O)NC4=O)C5=O)CC3)cc2)ncc1Cl (centres unmarked) [UB-181044]	10 to 100 nM	> 1000 nM	100 to 1000 nM	> 1000 nM	–	–	–	–
CNC(=O)c1ccccc1Nc1nc(Nc2ccc(N3CCN(C(=O)NCCCCOCCCNCCC(=O)Nc4ccc5c(c4)CN(C4CCC(=O)NC4=O)C5=O)CC3)cc2)ncc1Cl (centres unmarked) [UB-181046]	–	–	–	–	< 10 nM	> 1000 nM	100 to 1000 nM	> 1000 nM
CNC(=O)c1ccccc1Nc1nc(Nc2ccc(N3CCN(C(=O)NCCOCCOCCCNCC(=O)Nc4ccc5c(c4)CN(C4CCC(=O)NC4=O)C5=O)CC3)cc2)ncc1Cl (centres unmarked) [UB-181047]	10 to 100 nM	> 1000 nM	100 to 1000 nM	> 1000 nM	–	–	–	–
CNC(=O)c1ccccc1Nc1nc(Nc2ccc(N3CCN(C(=O)NCCOCCNCCOCCC(=O)Nc4ccc5c(c4)CN(C4CCC(=O)NC4=O)C5=O)CC3)cc2)ncc1Cl (centres unmarked) [UB-181050]	100 to 1000 nM	> 1000 nM	100 to 1000 nM	> 1000 nM	–	–	–	–
CNC(=O)c1ccccc1Nc1nc(Nc2ccc(N3CCN(C(=O)NCCNCCC(=O)Nc4cccc5c4CN(C4CCC(=O)NC4=O)C5=O)CC3)cc2)ncc1Cl (centres unmarked) [UB-181053]	10 to 100 nM	> 1000 nM	100 to 1000 nM	> 1000 nM	–	–	–	–
CNC(=O)c1ccccc1Nc1nc(Nc2ccc(N3CCN(C(=O)NCCNCCCC(=O)Nc4cccc5c4CN(C4CCC(=O)NC4=O)C5=O)CC3)cc2)ncc1Cl (centres unmarked) [UB-181055]	10 to 100 nM	> 1000 nM	100 to 1000 nM	> 1000 nM	–	–	–	–

Next, values leading:

IC50 (MV4;11 cells; [1])	IC50 (MDA-MB-231 cells; [2])	IC50 (NCIH82 cells; [3])	IC50 (PC-3; Homo sapiens, PC-3, PC-3 cells)	IC50 (MV4;11 cells; MV4;11 cells)	IC50 (MDA-MB-231 cells; MDA-MB-231 cells)	IC50 (NCIH82 cells; NCI-H82 cells)	IC50 (PC-3; PC-3 cells)	SMILES
> 1000 nM	> 1000 nM	> 1000 nM	> 1000 nM	–	–	–	–	O=C1CCC(N2Cc3c(NC(=O)CCOCCOCCOCCN[C@H]4CC[C@@H](NC(=O)[C@]5(Cc6cccc(Nc7nccs7)n6)CC[C@@H](Oc6cccc(Cl)c6F)CC5)CC4)cccc3C2=O)C(=O)N1 (some centres unmarked) [UB-181037]
> 1000 nM	> 1000 nM	> 1000 nM	> 1000 nM	–	–	–	–	O=C1CCC(N2Cc3cc(NC(=O)CCOCCOCCOCCN[C@H]4CC[C@@H](NC(=O)[C@]5(Cc6cccc(Nc7nccs7)n6)CC[C@@H](Oc6cccc(Cl)c6F)CC5)CC4)ccc3C2=O)C(=O)N1 (some centres unmarked) [UB-181038]
10 to 100 nM	> 1000 nM	> 1000 nM	> 1000 nM	–	–	–	–	CNC(=O)c1ccccc1Nc1nc(Nc2ccc(N3CCN(C(=O)NCCOCCNCCOCCC(=O)Nc4cccc5c4CN(C4CCC(=O)NC4=O)C5=O)CC3)cc2)ncc1Cl (centres unmarked) [UB-181051]
10 to 100 nM	100 to 1000 nM	–	< 10 nM	–	–	–	–	CC[C@@H]1C(=O)N(C)c2cnc(Nc3ccc(-c4cn([C@H]5CC[C@@H](N(CCO)CCOCCC#Cc6cccc7c6CN(C6CCC(=O)NC6=O)C7=O)CC5)nn4)cc3OC)nc2N1C1CCCC1 (some centres unmarked) [UB-181052]
< 10 nM	100 to 1000 nM	–	100 to 1000 nM	–	–	–	–	CC[C@@H]1C(=O)N(C)c2cnc(Nc3ccc(-c4cn([C@H]5CC[C@@H](N(CCOCCC#Cc6cccc7c6CN(C6CCC(=O)NC6=O)C7=O)C(=O)CO)CC5)nn4)cc3OC)nc2N1C1CCCC1 (some centres unmarked) [UB-181063]
10 to 100 nM	10 to 100 nM	–	10 to 100 nM	–	–	–	–	CC[C@@H]1C(=O)N(C)c2cnc(Nc3ccc(-c4cn([C@H]5CC[C@@H](NCCCOCC#Cc6cccc7c6CN(C6CCC(=O)NC6=O)C7=O)CC5)nn4)cc3OC)nc2N1C1CCCC1 (some centres unmarked) [UB-181089]
< 10 nM	100 to 1000 nM	–	100 to 1000 nM	–	–	–	–	CC[C@@H]1C(=O)N(C)c2cnc(Nc3ccc(NC(=O)N[C@H]4CC[C@H](NCCOCCC#Cc5cccc6c5CN(C5CCC(=O)NC5=O)C6=O)CC4)cc3)nc2N1C1CCCC1 (some centres unmarked) [UB-181126]
< 10 nM	100 to 1000 nM	–	100 to 1000 nM	–	–	–	–	CC[C@@H]1C(=O)N(C)c2cnc(Nc3ccc(NC(=O)N[C@H]4CC[C@H](NCCOCCC#Cc5cccc6c5CN(C5CCC(=O)NC5=O)C6=O)CC4)cc3OC)nc2N1C1CCCC1 (some centres unmarked) [UB-181130]
10 to 100 nM	100 to 1000 nM	–	100 to 1000 nM	–	–	–	–	CC[C@@H]1C(=O)N(C)c2cnc(Nc3ccc(-c4cn([C@H]5CC[C@@H](NCCOCCC#Cc6cccc7c6CN(C6CCC(=O)NC6=O)C7=O)CC5)nn4)nc3)nc2N1C1CCCC1 (some centres unmarked) [UB-181153]

From patent US20230210999A1, “TARGETED PROTEASE DEGRADATION (TED) PLATFORM” (EUBULUS BIOTHERAPEUTICS INC., priority 2020, published 2023)
